From patent US20060134243A1, “Method of using extracts of epimedium species” (Bionovo, Inc., priority 2004, published 2006)

Legend:
ERβ [1] = target: T1, ERβ (Homo sapiens, UniProt Q92731); assay: Repression of TNF-α activation of TNF-RE-tk-Luc with ERβ (Example 2); format: cell-based; settings: in the presence of ERβ
T1 construct: expressed in transfected cells
Excerpt: (§1) Plasmid Construction. A PstI to AhaII fragment from the human TNF-α gene, pLT, was cloned upstream of the luciferase cDNA. […] ERβ mutants were created with QuikChange site-directed mutagenesis kits (Stratagene), by using oligonucleotides containing the mutation. The mutants were sequenced with Sequenase kits (Amersham Pharmacia) to verify the presence of the mutation.
(§2) For experiments, cells were collected, transferred to a cuvette, and then electroporated with a Bio-Rad gene pulser as described previously using 3 μg of reporter plasmid and 1 μg of ERα or ERβ expression vectors. After electroporation, the cells were re-suspended in media and plated at 1 ml/dish in 12-well multiplates. […] The concentration of hormone required to produce a half-maximal induction (EC50) or inhibition (IC50) of luciferase activity was calculated with the Prism curve-fitting program (Graph Pad Software, version 2.0b). […] The cells were plated in duplicate at a density of 25,000 cells/35-mm plate in tissue culture medium containing 3% stripped fetal bovine serum. […] After 8 days the cells were counted with a Coulter counter.

ERβ [2] = target: T1, ERβ; assay: Repression of TNF-α activation of TNF-RE-tk-Luc in U2OS cells with transfected ERβ; format: cell-based
Excerpt: as §1, §2
The extracts (a and b) were than decanted and only the soluble material was used.

TNF-RE-tk-Luc = assay: Effect of antiestrogens on TNF-RE-tk-Luc (Example 2); format: cell-based, human; settings: for effect on the repression induced by E2: TNF-RE-tk-Luc; for activation of TNF-RE-tk-Luc: antiestrogens, in contrast to E2
Excerpt: as §1, §2

breast cancer = settings: among the 5129 women in the treatment group; median follow-up of 40 months; cited from earlier work
[3] = system: estrogen receptor-positive breast cancer; settings: five years of therapy; cited from earlier work
[4] = system: primary invasive breast cancer; settings: women at high risk for breast cancer; cited from earlier work

T1 sequence (Q92731 whole entry): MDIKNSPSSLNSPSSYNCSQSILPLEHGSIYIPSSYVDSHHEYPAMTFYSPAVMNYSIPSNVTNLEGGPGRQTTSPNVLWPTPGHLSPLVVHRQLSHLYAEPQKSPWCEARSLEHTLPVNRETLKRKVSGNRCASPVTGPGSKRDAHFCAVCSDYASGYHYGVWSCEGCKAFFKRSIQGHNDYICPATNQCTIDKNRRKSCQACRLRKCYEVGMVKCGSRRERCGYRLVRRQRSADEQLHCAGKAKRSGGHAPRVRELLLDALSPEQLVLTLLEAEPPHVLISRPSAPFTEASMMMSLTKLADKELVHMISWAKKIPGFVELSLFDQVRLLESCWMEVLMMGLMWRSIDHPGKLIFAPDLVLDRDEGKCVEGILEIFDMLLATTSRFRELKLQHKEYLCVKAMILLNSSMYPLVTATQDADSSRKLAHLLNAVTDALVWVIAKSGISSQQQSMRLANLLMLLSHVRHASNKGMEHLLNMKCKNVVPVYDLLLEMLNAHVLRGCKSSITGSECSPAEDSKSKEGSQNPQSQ

repression of TNF-α activation of TNF-RE-tk-Luc (ERβ [1])	repression of TNF-α activation of TNF-RE (ERβ [2]) [%]	SMILES	effect on the repression induced by E2 (TNF-RE-tk-Luc)	activation of TNF-RE-tk-Luc (TNF-RE-tk-Luc) [fold]	cases of breast cancer (breast cancer)	reduction of mortality from breast cancer [3] [%]	reduction of the risk of recurrences [3] [%]	reduction of the risk of primary invasive breast cancer [4] [%]
60-80%	100	C[C@]12CC[C@@H]3c4ccc(O)cc4CC[C@H]3[C@@H]1CC[C@@H]2O [E2, estradiol]						
		C[C@]12CC[C@@H]3c4ccc(O)cc4C[C@@H](CCCCCCCCC[S+]([O-])CCCC(F)(F)C(F)(F)F)[C@H]3[C@@H]1CC[C@@H]2O (stereo partly drawn) [ICI 182,780]	abolished the repression induced by E2	2				
		O=C(c1ccc(OCCN2CCCCC2)cc1)c1c(-c2ccc(O)cc2)sc2cc(O)ccc12 [raloxifene]	abolished the repression induced by E2	2	13			
		CC/C(=C(\c1ccccc1)c1ccc(OCCN(C)C)cc1)c1ccccc1 [tamoxifen]	abolished the repression induced by E2	2		22	42	49
